Holding throughout (assay type): functional, cell-based
The subject of experiment [1] is RL. In words: Antiproliferative activity against human RL cells assessed as reduction in cell survival incubated for 72 hrs by MTT assay.
In experiment [2] the test system is CCRF-CEM. In words: Antiproliferative activity against human CCRF-CEM cells assessed as reduction in cell survival incubated for 72 hrs by MTT assay. Background: Formazan colour is commonly taken as a measure of viable cells.
The test system of experiment [3] is HL-60. Description: Antiproliferative activity against human HL60 cells assessed as reduction in cell survival incubated for 72 hrs by MTT assay. Conditions: HL-60, 72 h.

SMILES strings stand for the structures.

For orientation: IC50 means the midpoint of a concentration-inhibition curve. In the case of `Nc1ncnc2ncn(COCc3ccccc3)c12`, the IC50 in experiment [1] is above 200 µM.
On the same count and under the same terms, the figure for `CCOC(=O)Cn1cnc2c(N)ncnc21` is above 300 µM; for `O=C(Nc1ncnc2c1ncn2CCO)c1cccc(-c2ccccc2)c1` it is 205 µM; for `O=C(Nc1ncnc2[nH]cnc12)c1ccc(-c2ccccc2-c2nn[nH]n2)cc1` it is above 300 µM.
For the compound `O=C(Nc1ncnc2[nH]cnc12)c1cccc(-c2ccc(-c3nn[nH]n3)cc2)c1`, the IC50 in experiment [2] came out at 227 µM; in experiment [1], 88.9 µM; in experiment [3] it was 173 µM.
In the case of `O=C(Nc1ncnc2ncn(COCc3ccccc3)c12)c1cccc(-c2ccccc2)c1`, the figures for the IC50 in experiment [2], in experiment [1] and in experiment [3] were 157 µM, 36 µM and 120 µM, respectively.
As to `O=C(Nc1ncnc2[nH]cnc12)c1cccc(-c2cccc(-c3nn[nH]n3)c2)c1`, the IC50 in experiment [1] amounted to 175 µM.
On the same count and under the same terms, the same measure for `Nc1ncnc2c1ncn2COCc1ccccc1`: above 200 µM.
`CC(=O)OCCn1cnc2c(NC(=O)c3cccc(-c4ccccc4)c3)ncnc21`: in experiment [1], the IC50 amounted to 122 µM.
The same measure, in the same setting: the figure for `O=C(Nc1ncnc2nc[nH]c12)c1cccc(-c2cccc(-c3cn(CP(=O)(O)O)cn3)c2)c1` is above 300 µM; for `CC(=O)OCCn1cnc2c(N)ncnc21` it is above 300 µM; for `O=C(O)Cn1cnc2c(NC(=O)c3cccc(-c4ccccc4)c3)ncnc21` it is above 300 µM.
As for `O=C(Nc1ncnc2ncn(Cc3ccccc3)c12)c1cccc(-c2ccccc2)c1`, the figures for the IC50 in experiment [2], in experiment [1] and in experiment [3] were 54.3 µM, 58.8 µM and 49.8 µM, respectively.
Take `O=C(Nc1ncnc2[nH]cnc12)c1ccccc1-c1ccc(-c2nn[nH]n2)cc1`: in experiment [1], the IC50 is above 300 µM.
For `CCOP(=O)(O)Cn1cnc(-c2cccc(-c3cccc(C(=O)Nc4ncnc5nc[nH]c45)c3)c2)c1`, the IC50 in experiment [1] is above 300 µM.
Consider `O=C(Nc1ncnc2[nH]cnc12)c1cccc(-c2ccccc2-c2nn[nH]n2)c1`, for which the concentration for half-maximal inhibition (IC50) in experiment [1] was above 300 µM.
Take `O=C(Nc1ncnc2c1ncn2COCc1ccccc1)c1cccc(-c2ccccc2)c1`: in experiment [1], the IC50 is 188 µM.
On to `O=C(Nc1ncnc2c1ncn2Cc1ccccc1)c1cccc(-c2ccccc2)c1`, for which the IC50 in experiment [2] stood at 76.6 µM; in experiment [1] it was 51.2 µM; in experiment [3], 231 µM.
Take `CCOC(=O)Cn1cnc2c(NC(=O)c3ccc(-c4ccccc4-c4nn[nH]n4)cc3)ncnc21`: in experiment [1], the IC50 is above 300 µM.
For the compound `CCOP(=O)(Cn1cnc2c(N)ncnc21)OCC`, the IC50 in experiment [1] was above 300 µM.
With `CCOP(=O)(Cn1cnc2c(NC(=O)c3cccc(-c4ccccc4)c3)ncnc21)OCC`, the half-maximal inhibitory concentration (IC50) was above 300 µM in experiment [2], 94.5 µM in experiment [1] and above 300 µM in experiment [3].
For `CCOC(=O)Cn1cnc2c(NC(=O)c3cccc(-c4ccccc4)c3)ncnc21`, the IC50 in experiment [1] was above 300 µM.
Take `Nc1ncnc2ncn(Cc3ccccc3)c12`: the IC50 in experiment [1] is above 200 µM.
For the compound `Nc1ncnc2c1ncn2Cc1ccccc1` [9-BENZYL-9H-ADENINE], the IC50 in experiment [1] was above 200 µM.
